{"source": "ChEMBL document CHEMBL3885881", "about": "“DrugMatrix”", "key": {"[1]": {"organism": "Rattus norvegicus", "type": "toxicity, organism-based, Sprague-Dawley", "details": "in vivo, po, 17 mg/kg, 24 h, route oral GAVAGE, dose level High, time 1 day, vehicle .5 % CMC", "description": "DrugMatrix - Regimen: Single"}, "[2]": {"organism": "Rattus norvegicus", "test": "DrugMatrix - Regimen: Daily Repeat", "type": "toxicity, organism-based, Sprague-Dawley", "design": "regimen Daily Repeat, gender Male, age 6-8 weeks", "details": "in vivo, po, 17 mg/kg, 72 h, route oral GAVAGE, dose level High, time 3 day, vehicle .5 % CMC"}}}
{"molecule": "COc1ccc(C(=O)Nc2c(Cl)cncc2Cl)cc1OC1CCCC1", "values": [{"measurement": "ABSOLUTE EOSINOPHIL", "setting": "[1]; tissue Blood", "value": 176.33, "unit": "CELLS/uL"}, {"measurement": "ABSOLUTE LYMPHOCYTE", "setting": "[1]; tissue Blood", "value": 11028.33, "unit": "CELLS/uL"}, {"measurement": "ABSOLUTE MONOCYTE", "setting": "[1]; tissue Blood", "value": 409.33, "unit": "CELLS/uL"}, {"measurement": "ABSOLUTE SEGMENTED NEUTROPHIL", "setting": "[1]; tissue Blood", "value": 1619.33, "unit": "CELLS/uL"}, {"measurement": "BASOPHIL", "setting": "[1]; tissue Blood", "value": 0, "unit": "%"}, {"measurement": "EOSINOPHIL", "setting": "[1]; tissue Blood", "value": 1.33, "unit": "%"}, {"measurement": "ERYTHROCYTE COUNT", "setting": "[1]; tissue Blood", "value": 5.33, "unit": "x10E6/uL"}, {"measurement": "HEMATOCRIT", "setting": "[1]; tissue Blood", "value": 33.03, "unit": "%"}, {"measurement": "HEMOGLOBIN", "setting": "[1]; tissue Blood", "value": 12.1, "unit": "G/DL"}, {"measurement": "LEUKOCYTE COUNT", "setting": "[1]; tissue Blood", "value": 13.23, "unit": "x10E3/uL"}, {"measurement": "LYMPHOCYTE", "setting": "[1]; tissue Blood", "value": 83.33, "unit": "%"}, {"measurement": "MEAN CORPUSCULAR HEMOGLOBIN", "setting": "[1]; tissue Blood", "value": 22.7, "unit": "pg"}, {"measurement": "MEAN CORPUSCULAR HEMOGLOBIN CONCENTRATION", "setting": "[1]; tissue Blood", "value": 36.67, "unit": "G/DL"}, {"measurement": "MEAN CORPUSCULAR VOLUME", "setting": "[1]; tissue Blood", "value": 61.9, "unit": "fL"}, {"measurement": "MONOCYTE", "setting": "[1]; tissue Blood", "value": 3, "unit": "%"}, {"measurement": "NEUTROPHIL", "setting": "[1]; tissue Blood", "value": 12.33, "unit": "%"}, {"measurement": "NUCLEATED RED BLOOD CELLS", "setting": "[1]; tissue Blood", "value": "0 /100WBC"}, {"measurement": "PLATELET COUNT", "setting": "[1]; tissue Blood", "value": 1139, "unit": "x10E3/uL"}, {"measurement": "ALANINE AMINOTRANSFERASE", "setting": "[1]; tissue Plasma", "value": 61.33, "unit": "u/L"}, {"measurement": "ALBUMIN", "setting": "[1]; tissue Plasma", "value": 4.37, "unit": "G/DL"}, {"measurement": "ALKALINE PHOSPHATASE", "setting": "[1]; tissue Plasma", "value": 327.67, "unit": "u/L"}, {"measurement": "ASPARTATE AMINOTRANSFERASE", "setting": "[1]; tissue Plasma", "value": 116, "unit": "u/L"}, {"measurement": "BLOOD UREA NITROGEN", "setting": "[1]; tissue Plasma", "value": 15.67, "unit": "mg/dL"}, {"measurement": "CARBON DIOXIDE", "setting": "[1]; tissue Plasma", "value": 34.33, "unit": "mmol/L"}, {"measurement": "CHLORIDE", "setting": "[1]; tissue Plasma", "value": 101.33, "unit": "MEQ/L"}, {"measurement": "CHOLESTEROL", "setting": "[1]; tissue Plasma", "value": 76, "unit": "mg/dL"}, {"measurement": "CREATININE", "setting": "[1]; tissue Plasma", "value": 0.2, "unit": "mg/dL"}, {"measurement": "GLUCOSE", "setting": "[1]; tissue Plasma", "value": 153.67, "unit": "mg/dL"}, {"measurement": "LACTATE DEHYDROGENASE", "setting": "[1]; tissue Plasma", "value": 163.33, "unit": "u/L"}, {"measurement": "LIPASE", "setting": "[1]; tissue Plasma", "value": 9, "unit": "u/L"}, {"measurement": "PHOSPHORUS", "setting": "[1]; tissue Plasma", "value": 12.6, "unit": "mg/dL"}, {"measurement": "POTASSIUM", "setting": "[1]; tissue Plasma", "value": 6.66, "unit": "MEQ/L"}, {"measurement": "SODIUM", "setting": "[1]; tissue Plasma", "value": 148.6, "unit": "MEQ/L"}, {"measurement": "TOTAL BILIRUBIN", "setting": "[1]; tissue Plasma", "value": 0.2, "unit": "mg/dL"}, {"measurement": "TOTAL PROTEIN", "setting": "[1]; tissue Plasma", "value": 6.3, "unit": "G/DL"}, {"measurement": "URIC ACID", "setting": "[1]; tissue Plasma", "value": 1.2, "unit": "mg/dL"}, {"measurement": "ABSOLUTE BASOPHIL", "setting": "[2]; tissue Blood", "value": 0, "unit": "CELLS/uL"}, {"measurement": "ABSOLUTE EOSINOPHIL", "setting": "[2]; tissue Blood", "value": 110.33, "unit": "CELLS/uL"}, {"measurement": "ABSOLUTE LYMPHOCYTE", "setting": "[2]; tissue Blood", "value": 17172, "unit": "CELLS/uL"}, {"measurement": "ABSOLUTE MONOCYTE", "setting": "[2]; tissue Blood", "value": 305.67, "unit": "CELLS/uL"}, {"measurement": "ABSOLUTE SEGMENTED NEUTROPHIL", "setting": "[2]; tissue Blood", "value": 3612, "unit": "CELLS/uL"}, {"measurement": "BASOPHIL", "setting": "[2]; tissue Blood", "value": 0, "unit": "%"}, {"measurement": "EOSINOPHIL", "setting": "[2]; tissue Blood", "value": 0.67, "unit": "%"}, {"measurement": "ERYTHROCYTE COUNT", "setting": "[2]; tissue Blood", "value": 5.87, "unit": "x10E6/uL"}, {"measurement": "HEMATOCRIT", "setting": "[2]; tissue Blood", "value": 36.6, "unit": "%"}, {"measurement": "HEMOGLOBIN", "setting": "[2]; tissue Blood", "value": 13.33, "unit": "G/DL"}, {"measurement": "LEUKOCYTE COUNT", "setting": "[2]; tissue Blood", "value": 21.2, "unit": "x10E3/uL"}, {"measurement": "LYMPHOCYTE", "setting": "[2]; tissue Blood", "value": 82.67, "unit": "%"}, {"measurement": "MEAN CORPUSCULAR HEMOGLOBIN", "setting": "[2]; tissue Blood", "value": 22.73, "unit": "pg"}, {"measurement": "MEAN CORPUSCULAR HEMOGLOBIN CONCENTRATION", "setting": "[2]; tissue Blood", "value": 36.47, "unit": "G/DL"}, {"measurement": "MEAN CORPUSCULAR VOLUME", "setting": "[2]; tissue Blood", "value": 62.43, "unit": "fL"}, {"measurement": "MONOCYTE", "setting": "[2]; tissue Blood", "value": 1.33, "unit": "%"}, {"measurement": "NEUTROPHIL", "setting": "[2]; tissue Blood", "value": 15.33, "unit": "%"}, {"measurement": "NUCLEATED RED BLOOD CELLS", "setting": "[2]; tissue Blood", "value": "0 /100WBC"}, {"measurement": "PLATELET COUNT", "setting": "[2]; tissue Blood", "value": 1117.33, "unit": "x10E3/uL"}, {"measurement": "ALANINE AMINOTRANSFERASE", "setting": "[2]; tissue Plasma", "value": 51.67, "unit": "u/L"}, {"measurement": "ALBUMIN", "setting": "[2]; tissue Plasma", "value": 3.77, "unit": "G/DL"}, {"measurement": "ALKALINE PHOSPHATASE", "setting": "[2]; tissue Plasma", "value": 361.67, "unit": "u/L"}, {"measurement": "ASPARTATE AMINOTRANSFERASE", "setting": "[2]; tissue Plasma", "value": 68.67, "unit": "u/L"}, {"measurement": "BLOOD UREA NITROGEN", "setting": "[2]; tissue Plasma", "value": 17.33, "unit": "mg/dL"}, {"measurement": "CARBON DIOXIDE", "setting": "[2]; tissue Plasma", "value": 31.33, "unit": "mmol/L"}, {"measurement": "CHLORIDE", "setting": "[2]; tissue Plasma", "value": 103, "unit": "MEQ/L"}, {"measurement": "CHOLESTEROL", "setting": "[2]; tissue Plasma", "value": 74.67, "unit": "mg/dL"}, {"measurement": "CREATININE", "setting": "[2]; tissue Plasma", "value": 0.18, "unit": "mg/dL"}, {"measurement": "GLUCOSE", "setting": "[2]; tissue Plasma", "value": 188.33, "unit": "mg/dL"}, {"measurement": "LACTATE DEHYDROGENASE", "setting": "[2]; tissue Plasma", "value": 139, "unit": "u/L"}, {"measurement": "LIPASE", "setting": "[2]; tissue Plasma", "value": 9.33, "unit": "u/L"}, {"measurement": "PHOSPHORUS", "setting": "[2]; tissue Plasma", "value": 12.77, "unit": "mg/dL"}, {"measurement": "POTASSIUM", "setting": "[2]; tissue Plasma", "value": 6.6, "unit": "MEQ/L"}, {"measurement": "SODIUM", "setting": "[2]; tissue Plasma", "value": 149.03, "unit": "MEQ/L"}, {"measurement": "TOTAL BILIRUBIN", "setting": "[2]; tissue Plasma", "value": 0.13, "unit": "mg/dL"}, {"measurement": "TOTAL PROTEIN", "setting": "[2]; tissue Plasma", "value": 6.1, "unit": "G/DL"}, {"measurement": "URIC ACID", "setting": "[2]; tissue Plasma", "value": 2.07, "unit": "mg/dL"}]}
